Experimental data reported in patent EP3838286B1, “ANTIMICROBIAL PEPTIDE FROM POLISTES GALLICUS VENOM AND ITS ANALOGS” (Latoxan, priority 2019, dated 2021).
Values after ≈ are worked out from the molar mass of the structure shown. Where two headings read alike, the source gives them in different places. Square brackets hold non-standard residues; d marks the D form. Peptide text beside a SMILES is read from it.

How the values were obtained:
[1] = Cytotoxicity assay (resazurin); type: cell-based; conditions: human
Procedure: Normal human cells used were BEAS-2B (ATCC CRL-9609), IMR-90 (ATCC CCL-186) and Human Umbilical Vein Endothelial Cells (HUVEC) (from Sigma-Aldrich) corresponding respectively to human normal lung epithelial, normal lung fibroblast cells and human normal endothelial cells. All cells except HUVEC cells were cultured in Dulbecco's modified essential medium (DMEM) supplemented with 10% fetal calf serum (FCS), 1% L-glutamine and 1% antibiotics (all from Invitrogen). HUVEC cells were cultured in specific endothelial media (from Sigma Aldrich). Cells were seeded onto […] maintained in a 5% CO2 incubator at 37 °C. Cells grown on 25 cm^2 flasks were detached using trypsin-EDTA solution (from Thermofisher), counted using Mallassez counting chamber and seeded into 96-well cell culture plates (Greiner bio-one) at approximately 10,000 cells per well. The cells were left to grow for 48-72 h at 37 °C in a 5% CO2 incubator until they reached confluence. Plates were then aspirated and increasing concentrations of peptides diluted in culture media were added to the cells for 48 h at 37 °C in a 5% CO2 incubator. At the end of the incubation, wells were emptied and cell viability was evaluated using Resazurin based in vitro toxicity assay kit (from Sigma-Aldrich) following manufacturer's instructions. Briefly, Resazurin stock solution was diluted 1:10 in sterile PBS containing calcium and magnesium (PBS, pH 7.4) and empty wells were filled with 100 µL of the diluted solution. After 4 h incubation at 37 °C, fluorescence intensity was measured using microplate reader (Synergy Mx, Biotek) with an excitation wavelength of 530 nm and an emission wavelength of 590 nm. The fluorescence values were normalized by the controls (buffer treated cells) and expressed as percent viability. The IC50 values of peptides on cell viability (i.e. the concentration of derivative causing a reduction of 50% of cell viability) were determined using GraphPad® Prism 7 software. t-Test and two way ANOVA analyses were used to address the significant differences between mean values with significance set at p < 0.05.

Pseudomonas aeruginosa = assay: Stability of the peptides to proteases and human serum (MIC of digested peptides); type: in vitro ADME; conditions: for MIC (µM) Serum4h: after 4 h at 37°C in human serum; for MIC (µM) Serum4h / MIC (µM) Chymotrypsin / MIC (µM) Pepsin / MIC (µM) Trypsin / MIC (µM) Serum24h / MIC (µM) Control: against Pseudomonas aeruginosa; for MIC (µM) Chymotrypsin: after 4 h at 37°C with chymotrypsin; for MIC (µM) Chymotrypsin / MIC (µM) Trypsin: pH 7; for MIC (µM) Pepsin: after 4 h at 37°C with pepsin, pH2; for MIC (µM) Trypsin: after 4 h at 37°C with trypsin; for MIC (µM) Serum24h: after 24 h at 37°C in human serum; for stability to proteases and human serum: pepsin, trypsin, chymotrypsin; for MIC (µM) Control: peptide incubated in PBS, not treated with proteases
Procedure: In order to evaluate the stability of the peptides to condition they will face in vivo, their resistance to proteases and human serum was evaluated (Oyama et al., 2017 Biofilms Microbiomes, Dec 1;3:33). Briefly, one volume of peptides (at 1 mM) was diluted in one volume of proteases (Pepsin, Trypsin, Chymotrypsin, Papain all from Sigma Aldrich and diluted at 2 mg/ml in HCl 10 mM pH2 for Pepsin, PBS pH 7 for Trypsin and Chymotrysin and PBS pH 6 for Papain) or human serum (Sigma Aldrich H4522). Peptides incubated in the same conditions in PBS were used as controls. After 4 h (for proteases) and 4 or 24 h (for human serum) of incubation at 37°C, PMSF was added to the reaction mixture at a final concentration of 100 µM to stop the digestion. MIC of the digested peptides were then determined as explained above.

MDA-MB-231 = assay: Antitumor / antiproliferative activity (resazurin); type: cell-based, human; conditions: breast cancer cells; 5,000 cells/well; 48 h; read-out: IC50 antiproliferative effect MDA-MB-231
Procedure: (§1) Human cancer cell lines (Mia PaCa-2 (CRL-1420), PC-3 (CRL-1435), MDA-MB-231 (HTB-26)) and normal lung fibrobasts (BEAS-2B (ATCC CRL-9609) and IMR-90 (ATCC CCL-186)) were obtained from American Type Culture Collection (ATCC). HUVEC cells were obtained from Sigma Aldrich and were grown in defined all-in-one ready to use endothelial cell growth medium (Sigma Aldrich). Other cells were cultured in Dulbecco's modified Eagle's medium (DMEM, Gibco Life Technologies) supplemented with 10% heat-inactivated fetal calf serum (FCS, Lonza) at 37 °C in an incubator containing 5% CO2. Cells were sub-cultured in new media every 3-4 days. Antiproliferative / antitumor effects of the peptides were measured as previously described (Borie et al., Eur J Med Chem. 2018;148:306-313). Briefly, cells were detached from growing flask using trypsin, cells were counted and seeded in 96 well-plates in the growth media at an initial cell density of 5000 cells/well. Cells were left for 4 h to attach to the wells. Cells were then treated with increasing concentrations of peptides diluted in culture media. After 48 h incubation at 37 °C in a 5% CO2 incubator, wells were emptied and cell number was evaluated using Resazurin based in vitro toxicity assay kit (from Sigma-Aldrich) following manufacturer's instructions. Briefly, Resazurin stock solution was diluted 1:10 in sterile PBS containing calcium and magnesium (PBS, pH 7.4) and empty wells were filled with 100 µL of the diluted solution. After 4 h incubation at 37 °C, fluorescence intensity was measured using microplate reader (Synergy Mx, Biotek) with an excitation wavelength of 530 nm and an emission wavelength of 590 nm. The fluorescence values were normalized by the controls (buffer treated cells) and expressed as per-cent viability. The IC50 values of peptides on cell division / proliferation (i.e. the concentration of derivative causing a reduction of 50% of cell division) were determined using GraphPad ® Prism 7 software. t-Test and two way ANOVA analyses were used to address the significant differences between mean values with significance set at p < 0.05.

MiaPaCa-2 = assay: Antitumor / antiproliferative activity (resazurin); type: cell-based, human; conditions: pancreas cancer cells; 5,000 cells/well; 48 h; read-out: IC50 antiproliferative effect MiaPaCa-2
Procedure: as §1

PC-3 = assay: Antitumor / antiproliferative activity (resazurin); type: cell-based, human; conditions: prostate cancer cells; 5,000 cells/well; 48 h; read-out: IC50 antiproliferative effect PC-3
Procedure: as §1

[2] = test system: B. subtilis (Nisin-resistant)
M. smegmatis = conditions: 72 h
[3] = BEAS-2B normal lung epithelial cells, normal lung epithelium, read-out: Cytotoxicity IC50 (µM) BEAS
[4] = HUVEC (human umbilical vein endothelial cells), normal endothelium, read-out: Cytotoxicity IC50 (µM) HUVEC
[5] = IMR-90 normal lung fibroblast cells, read-out: Cytotoxicity IC50 (µM) IMR90

SMILES: CC[C@@H](C)[C@@H](N)C(=O)N[C@H](CC(C)C)C(=O)N[C@H](CCCCN)C(=O)N[C@H](C)C(=O)N[C@@H](C(=O)N[C@H](CCCCN)C(=O)N[C@H](CCCCN)C(=O)N[C@H](CC(C)C)C(=O)N[C@H](CC(C)C)C(=O)N[C@H](CCCCN)C(N)=O)[C@H](C)CC [(i1k10*) enantio, ilkaikkllk] (H-[dI][dL][dK][dA][dI][dK][dK][dL][dL][dK]-NH2)
- CC50 at 48 h [1, 3]: 726 µM
- CC50 at 48 h [1, 4]: 683 µM
- CC50 at 48 h [1, 5]: 365 µM
- MIC (µM) Serum4h (Pseudomonas aeruginosa): 1.5 µM
- MIC (µM) Chymotrypsin (Pseudomonas aeruginosa): 1.5 µM
- MIC (µM) Pepsin (Pseudomonas aeruginosa): 1.5 µM
- MIC (µM) Trypsin (Pseudomonas aeruginosa): 1.5 µM
- MIC (µM) Serum24h (Pseudomonas aeruginosa): 0.75 µM
- stability to proteases and human serum (Pseudomonas aeruginosa): not affected
- MIC (µM) Control (Pseudomonas aeruginosa): 1.5 µM
- IC50 (MDA-MB-231): 61.7 µM
- IC50 (MiaPaCa-2): 13.4 µM
- IC50 (PC-3): 39.3 µM
- MBC (µM) P. aeruginosa (P. aeruginosa): 3.12 µM (≈ 3.64 µg/mL)
- MIC (µM) P. aeruginosa (P. aeruginosa): 3.125 µM (≈ 3.65 µg/mL)
- MIC PA (P. aeruginosa): 3.125 µM (≈ 3.65 µg/mL)
- MBC (µM) L. lactis (L. lactis): 3.12 µM (≈ 3.64 µg/mL)
- MIC (µM) L. lactis (L. lactis): 1.5 µM (≈ 1.75 µg/mL)
- MBC (µM) B. subtilis (Nisin-resistant) [2]: 12.5 µM (≈ 14.6 µg/mL)
- MIC (µM) B. subtilis (Nisin-resistant) [2]: 12.5 µM (≈ 14.6 µg/mL)
- MBC (µM) A. gandavensis (A. gandavensis): 1.5 µM (≈ 1.75 µg/mL)
- MIC (µM) A. gandavensis (A. gandavensis): 1.5 µM (≈ 1.75 µg/mL)
- MBC (µM) E. coli EHEC K88 (E. coli EHEC K88): 50 µM (≈ 58.3 µg/mL)
- MIC (µM) E. coli EHEC K88 (E. coli EHEC K88): 50 µM (≈ 58.3 µg/mL)
- MBC (µM) P. aeruginosa FQR (P. aeruginosa FQR): 100 µM (≈ 117 µg/mL)
- MIC (µM) P. aeruginosa FQR (P. aeruginosa FQR): 12.5 to 25 µM
- MBC (µM) P. aeruginosa 01 (P. aeruginosa 01): 50 µM (≈ 58.3 µg/mL)
- MIC (µM) P. aeruginosa 01 (P. aeruginosa 01): 12.5 µM (≈ 14.6 µg/mL)
- MBC (µM) S. flexneri (S. flexneri): 12.5 µM (≈ 14.6 µg/mL)
- MIC (µM) S. flexneri (S. flexneri): 12.5 µM (≈ 14.6 µg/mL)
- MBC (µM) C. farmeri (C. farmeri): 50 µM (≈ 58.3 µg/mL)
- MIC (µM) C. farmeri (C. farmeri): 12.5 µM (≈ 14.6 µg/mL)
- MBC (µM) C. rodentium (C. rodentium): 50 µM (≈ 58.3 µg/mL)
- MIC (µM) C. rodentium (C. rodentium): 50 µM (≈ 58.3 µg/mL)
- MBC (µM) S. enterica (S. enterica): 25 µM (≈ 29.2 µg/mL)
- MIC (µM) S. enterica (S. enterica): 50 µM (≈ 58.3 µg/mL)
- MBC (µM) V. alginolyticus (V. alginolyticus): 1.5 µM (≈ 1.75 µg/mL)
- MIC (µM) V. alginolyticus (V. alginolyticus): 0.78 to 1.56 µM
- MBC (µM) H. pylori (H. pylori): 50 µM (≈ 58.3 µg/mL)
- MIC (µM) H. pylori (H. pylori): 50 µM (≈ 58.3 µg/mL)
- MIC (µM) M. smegmatis (M. smegmatis): 6.25 µM (≈ 7.29 µg/mL)

SMILES: CC[C@@H](C)[C@@H](N)C(=O)N[C@H](CC(C)C)C(=O)N[C@H](CCCCN)C(=O)N[C@H](C)C(=O)N[C@@H](C(=O)N[C@H](CCCCN)C(=O)N[C@H](CCCCN)C(=O)N[C@H](CC(C)C)C(=O)N[C@H](CC(C)C)C(=O)N[C@H](CCCCN)C(=O)N[C@H](CC(N)=O)C(N)=O)[C@H](C)CC [LTX-D (gallicune-1), ilkaikkllkn] (H-[dI][dL][dK][dA][dI][dK][dK][dL][dL][dK][dN]-NH2)
- CC50 at 48 h [1, 3]: 843 µM
- CC50 at 48 h [1, 4]: 869 µM
- CC50 at 48 h [1, 5]: 653 µM
- MIC (µM) Serum4h (Pseudomonas aeruginosa): 25 µM
- MIC (µM) Chymotrypsin (Pseudomonas aeruginosa): 25 µM
- MIC (µM) Pepsin (Pseudomonas aeruginosa): 25 µM
- MIC (µM) Trypsin (Pseudomonas aeruginosa): 25 µM
- MIC (µM) Serum24h (Pseudomonas aeruginosa): 12.5 µM
- stability to proteases and human serum (Pseudomonas aeruginosa): not affected
- MIC (µM) Control (Pseudomonas aeruginosa): 25 µM
- IC50 (MDA-MB-231): 56.2 µM
- IC50 (MiaPaCa-2): 6.51 µM
- IC50 (PC-3): 33.7 µM
- MBC (µM) P. aeruginosa (P. aeruginosa): 1.5 µM (≈ 1.92 µg/mL)
- MIC (µM) P. aeruginosa (P. aeruginosa): 1.5 µM (≈ 1.92 µg/mL)
- MIC PA (P. aeruginosa): 1.5 µM (≈ 1.92 µg/mL)
- MIC (µM) E. coli (E. coli): 6.25 µM (≈ 8 µg/mL)
- MBC (µM) L. lactis (L. lactis): 1.5 µM (≈ 1.92 µg/mL)
- MIC (µM) L. lactis (L. lactis): 1.5 µM (≈ 1.92 µg/mL)
- MBC (µM) B. subtilis (Nisin-resistant) [2]: 6.25 µM (≈ 8 µg/mL)
- MIC (µM) B. subtilis (Nisin-resistant) [2]: 6.25 µM (≈ 8 µg/mL)
- MBC (µM) A. gandavensis (A. gandavensis): 1.5 µM (≈ 1.92 µg/mL)
- MIC (µM) A. gandavensis (A. gandavensis): 1.5 µM (≈ 1.92 µg/mL)
- MBC (µM) E. coli EHEC K88 (E. coli EHEC K88): 50 µM (≈ 64 µg/mL)
- MIC (µM) E. coli EHEC K88 (E. coli EHEC K88): 50 µM (≈ 64 µg/mL)
- MBC (µM) P. aeruginosa FQR (P. aeruginosa FQR): 12.5 µM (≈ 16 µg/mL)
- MIC (µM) P. aeruginosa FQR (P. aeruginosa FQR): 6.25 to 12.5 µM
- MBC (µM) P. aeruginosa 01 (P. aeruginosa 01): 25 µM (≈ 32 µg/mL)
- MIC (µM) P. aeruginosa 01 (P. aeruginosa 01): 6.25 µM (≈ 8 µg/mL)
- MBC (µM) S. flexneri (S. flexneri): 12.5 µM (≈ 16 µg/mL)
- MIC (µM) S. flexneri (S. flexneri): 12.5 µM (≈ 16 µg/mL)
- MBC (µM) C. farmeri (C. farmeri): 6.25 µM (≈ 8 µg/mL)
- MIC (µM) C. farmeri (C. farmeri): 6.25 µM (≈ 8 µg/mL)
- MBC (µM) C. rodentium (C. rodentium): 25 µM (≈ 32 µg/mL)
- MIC (µM) C. rodentium (C. rodentium): 12.5 µM (≈ 16 µg/mL)
- MBC (µM) S. enterica (S. enterica): 25 µM (≈ 32 µg/mL)
- MIC (µM) S. enterica (S. enterica): 25 µM (≈ 32 µg/mL)
- MBC (µM) V. alginolyticus (V. alginolyticus): 0.78 µM (≈ 0.999 µg/mL)
- MIC (µM) V. alginolyticus (V. alginolyticus): 0.78 µM (≈ 0.999 µg/mL)
- MBC (µM) H. pylori (H. pylori): 50 µM (≈ 64 µg/mL)
- MIC (µM) H. pylori (H. pylori): 50 µM (≈ 64 µg/mL)
- MIC (µM) M. smegmatis (M. smegmatis): 25 µM (≈ 32 µg/mL)
